Data reported in US9839629B2, “Inhibitors of the renal outer medullary potassium channel” (Merck Sharp & Dohme Corp., priority 2013, dated 2017).

Molecular target: T1, ROMK (Kir1.1) channel (Homo sapiens, UniProt P48048)
T1 sequence (P48048 1-391): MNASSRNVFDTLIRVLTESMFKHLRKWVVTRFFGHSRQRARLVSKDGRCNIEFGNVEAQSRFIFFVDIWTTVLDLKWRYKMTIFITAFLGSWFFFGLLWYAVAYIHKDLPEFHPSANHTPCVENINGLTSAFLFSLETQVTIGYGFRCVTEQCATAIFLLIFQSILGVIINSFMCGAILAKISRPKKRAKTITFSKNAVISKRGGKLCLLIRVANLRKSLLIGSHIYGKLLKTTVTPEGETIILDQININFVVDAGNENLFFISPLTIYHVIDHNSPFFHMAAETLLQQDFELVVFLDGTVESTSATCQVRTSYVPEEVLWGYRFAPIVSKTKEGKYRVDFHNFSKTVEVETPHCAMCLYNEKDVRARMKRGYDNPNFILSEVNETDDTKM
Assay: Thallium Flux Assay
Format: cell-based
Description: A Thallium Flux Assay was performed on each of the final product compounds in the Examples. When the final product of an Example was an HCl salt, the salt was run in the Assay. This assay has been described previously; see, e.g., PCT Published Application WO 2013/062900.

Row | IC50 [nM] | SMILES
1 | 688 | Cc1c(N2CCC3(CCN(C[C@H](O)c4ccc(-n5cnnn5)cn4)CC3)CC2)c(=O)c1=O [Example 87, (S)-3-(9-(2-(5-(1H-tetrazol-1-yl)pyridin-2-yl)-2-hydroxyethyl)-3,9-diazaspiro[5.5]undecan-3-yl)-4-methylcyclobut-3-ene-1,2-dione]
2 | 639 | CC1=C(N2CCC3(CCN(C[C@H](O)c4ccc5c(c4C)COC5=O)CC3)[C@@H](O)C2)COC1=O [Example 94, 5-{(1R)-1-hydroxy-2-[(7R)-7-hydroxy-9-(4-methyl-5-oxo-2,5-dihydrofuran-3-yl)-3,9-diazaspiro[5.5]undec-3-yl]ethyl}-4-methyl-2-benzofuran-1(3H)-one]
3 | 80 | Cc1c(N2CCC3(CCN(C[C@H](O)c4cnc(-n5cnnn5)cn4)CC3)CC2)c(=O)c1=O [Example 85, (S)-3-(9-(2-(5-(1H-tetrazol-1-yl)pyrazin-2-yl)-2-hydroxyethyl)-3,9-diazaspiro[5.5]undecan-3-yl)-4-methylcyclobut-3-ene-1,2-dione]
4 | 132 | COCO[C@@H]1CN(C2=C(C)C(=O)OC2)CCC12CCN(C[C@H](O)c1ccc3c(c1C)COC3=O)CC2 [Example 96, 5-{(1R)-1-hydroxy-2-[(7S)-7-(methoxymethoxy)-9-(4-methyl-5-oxo-2,5-dihydrofuran-3-yl)-3,9-diazaspiro[5.5]undec-3-yl]ethyl}-4-methyl-2-benzofuran-1(3H)-one]
5 | 69 | CC1=C(N2CCC3(CCN(C[C@H](O)c4ccc(-n5cnnn5)nc4C)CC3)CC2)CCC1=O [Example 74, (R)-3-(9-(2-hydroxy-2-(2-methyl-6-(1H-tetrazol-1-yl)pyridin-3-yl)ethyl)-3,9-diazaspiro[5.5]undecan-3-yl)-2-methylcyclopent-2-enone]
6 | 53 | CO[C@@H]1CN(C2=C(C)C(=O)OC2)CCC12CCN(C[C@H](O)c1ccc3c(c1C)COC3=O)CC2 [Example 98, 5-{(1R)-1-hydroxy-2-[(7S)-7-methoxy-9-(4-methyl-5-oxo-2,5-dihydrofuran-3-yl)-3,9-diazaspiro[5.5]undec-3-yl]ethyl}-4-methyl-2-benzofuran-1(3H)-one]
7 | 140 | CC1=C(N2CCC3(CCN(C[C@H](O)c4ccc(-n5cnnn5)cc4C)CC3)CC2)CCC1=O [Example 77, (R)-3-(9-(2-hydroxy-2-(2-methyl-4-(1H-tetrazol-1-yl)phenyl)ethyl)-3,9-diazaspiro[5.5]undecan-3-yl)-2-methylcyclopent-2-enone]
8 | 634 | CC1=C(N2CCC3(CCN(C[C@@H](O)c4ccccc4-n4cnnn4)CC3)CC2)COC1=O [Example 69, (S)-4-(9-(2-(2-(1H-tetrazol-1-yl)phenyl)-2-hydroxyethyl)-3,9-diazaspiro[5.5]undecan-3-yl)-3-methylfuran-2(5H)-one]

Second part, the compound before the results:

Row | SMILES | IC50 [nM]
9 | Cc1c([C@@H](O)CN2CCC3(CC2)CCN(C2=C(Cl)C(=O)OC2)CC3)ccc2c1COC2=O [Example 40, (R)-5-(2-(9-(4-chloro-5-oxo-2,5-dihydrofuran-3-yl)-3,9-diazaspiro[5.5]undecan-3-yl)-1-hydroxyethyl)-4-methylisobenzofuran-1(3H)-one] | 5
10 | Cc1nc(-n2cnnn2)ccc1[C@H](O)CN1CCC2(CC1)CCN(C1=CC(=O)OC1)CC2 [Example 14, (S)-4-(9-(2-hydroxy-2-(2-methyl-6-(1H-tetrazol-1-yl)pyridin-3-yl)ethyl)-3,9-diazaspiro[5.5]undecan-3-yl)furan-2(5H)-one] | 24
11 | CC1=C(N2CCC3(CCN(C[C@@H](O)c4ccc(-n5cnnn5)cc4C)CC3)CC2)COC1=O [Example 56, (S)-4-(9-(2-hydroxy-2-(2-methyl-4-(1H-tetrazol-1-yl)phenyl)ethyl)-3,9-diazaspiro[5.5]undecan-3-yl)-3-methylfuran-2(5H)-one] | 11
12 | O=C1C=C(N2CCC3(CCN(C[C@H](O)c4ccc(-n5cnnn5)nn4)CC3)CC2)CO1 [Example 16, (S)-4-(9-(2-(6-(1H-tetrazol-1-yl)pyridazin-3-yl)-2-hydroxyethyl)-3,9-diazaspiro[5.5]undecan-3-yl)furan-2(5H)-one] | 41
13 | CC1=C(N2CCC3(CCN(CC(O)c4ccc(Br)cc4)CC3)CC2)COC1=O (stereo not shown) [Example 36, 4-(9-(2-(4-bromophenyl)-2-hydroxyethyl)-3,9-diazaspiro[5.5]undecan-3-yl)-3-methylfuran-2(5H)-one] | 115
14 | COc1cc(C#N)ncc1[C@@H](O)CN1CCC2(CC1)CCN(C1=CC(=O)OC1)CC2 [Example 9, (R)-5-(1-hydroxy-2-(9-(5-oxo-2,5-dihydrofuran-3-yl)-3,9-diazaspiro[5.5]undecan-3-yl)ethyl)-4-methoxypicolinonitrile] | 220
15 | CC1=C(N2CCC3(CCN(C[C@@H](O)c4cccc(-n5cnnn5)c4)CC3)CC2)COC1=O [Example 60, (S)-4-(9-(2-(3-(1H-tetrazol-1-yl)phenyl)-2-hydroxyethyl)-3,9-diazaspiro[5.5]undecan-3-yl)-3-methylfuran-2(5H)-one] | 32
16 | Cc1cc(-n2cnnn2)cnc1C(O)CN1CCC2(CC1)CCN(C1=CC(=O)OC1)CC2 (stereo in doubt) [Example 21, (S)-4-(9-(2-hydroxy-2-(3-methyl-5-(1H-tetrazol-1-yl)pyridin-2-yl)ethyl)-3,9-diazaspiro[5.5]undecan-3-yl)furan-2(5H)-one] | 181
17 | CC1=C(N2CCC3(CCN(C[C@@H](O)c4ccc(-n5cnnn5)cc4F)CC3)CC2)COC1=O [Example 54, (S)-4-(9-(2-(2-fluoro-4-(1H-tetrazol-1-yl)phenyl)-2-hydroxyethyl)-3,9-diazaspiro[5.5]undecan-3-yl)-3-methylfuran-2(5H)-one] | 8
18 | C[C@H]1Cc2cc([C@H](O)CN3CCC4(CC3)CCN(C3=CC(=O)OC3)CC4)ccc2C(=O)O1 [Example 12, (S)-6-((S)-1-hydroxy-2-(9-(5-oxo-2,5-dihydrofuran-3-yl)-3,9-diazaspiro[5.5]undecan-3-yl)ethyl)-3-methylisochroman-1-one] | 685
19 | O=C1C=C(N2CCC3(CCN(C[C@@H](O)c4ccc(-n5cnnn5)nc4)CC3)CC2)CO1 [Example 19, (S)-4-(9-(2-(6-(1H-tetrazol-1-yl)pyridin-3-yl)-2-hydroxyethyl)-3,9-diazaspiro[5.5]undecan-3-yl)furan-2(5H)-one] | 74
20 | Cc1cc(-n2cnnn2)cnc1[C@@H](O)CN1CCC2(CC1)CCN(C1=CC(=O)OC1)CC2 [Example 20, (S)-4-(9-(2-hydroxy-2-(3-methyl-5-(1H-tetrazol-1-yl)pyridin-2-yl)ethyl)-3,9-diazaspiro[5.5]undecan-3-yl)furan-2(5H)-one] | 98
21 | Cc1cc(-n2cnnn2)ccc1[C@H](O)CN1CCC2(CC1)CCN(C1=CC(=O)OC1)CC2 [Example 25, (S)-4-(9-(2-hydroxy-2-(2-methyl-4-(1H-tetrazol-1-yl)phenyl)ethyl)-3,9-diazaspiro[5.5]undecan-3-yl)furan-2(5H)-one] | 22
22 | Cc1c(CCN2CCC3(CC2)CCN(C2=CC(=O)OC2)CC3)ccc2c1COC2=O [Example 2, 4-methyl-5-(2-(9-(5-oxo-2,5-dihydrofuran-3-yl)-3,9-diazaspiro[5.5]undecan-3-yl)ethyl)isobenzofuran-1(3H)-one] | 31
